Experimental data: patent publication US9137992B2, “Spinosyn-producing polyketide synthases” (DOW AGROSCIENCES LLC, priority 2002, dated 2015)

Key:
[1] = test system: beet armyworm (Spodoptera exigua) larvae; assay: Topical assay on beet armyworm larvae; format: in vivo; details: acetone solution, 1 microg/larva, six larvae, mortality at end of two-day period, 21° C., 60% RH
Description: (§1) Biological activity of the compounds of the invention was shown by a topical assay in which the compound was applied to laboratory-reared larvae (mean weight 22 mg) at the rate of 1 microg/larva. Each compound was applied, in an acetone solution (1 mg/mL), along the dorsum of six tobacco budworm (Heliothis virescens) larvae and six beet armyworm (Spodoptera exigua) larvae. Treated larvae were then held for two days at 21° C., 60% RH in six-well plastic culture plates. Larvae were each supplied with a 1 cm^3 of agar-based Lepidoptera diet for sustenance during the two-day post-exposure interval. Percent mortality was determined at the end of a two-day period (Table 18).

[2] = test system: tobacco budworm (Heliothis virescens) larvae; assay: Topical assay on tobacco budworm larvae; format: in vivo; details: acetone solution, 1 microg/larva, six larvae, mortality at end of two-day period, 21° C., 60% RH
Description: as §1

insect = assay: Insect control assays; details: in vivo

Row | Compound | Beet Armyworm Mortality (%) [1] [%] | Tobacco Budworm Mortality (%) [2] [%] | activity in insect control assays (insect)
1 | CO[C@@H]1[C@@H](OC)[C@H](C)O[C@@H](O[C@@H]2C[C@H]3CC[C@@H]4[C@@H](C=C5C(=O)[C@H](C)[C@@H](O[C@H]6CC[C@H](N(C)C)[C@@H](C)O6)CCC[C@H](C6CCC6)OC(=O)C[C@H]54)[C@@H]3C2)[C@@H]1OC [Compound 8, 5,6-dihydro-21-desethyl-21-cyclobutyl spinosyn A] | 83 | 100 | 
2 | CCC[C@H]1CCC[C@H](O[C@H]2CC[C@H](N(C)C)[C@@H](C)O2)[C@@H](C)C(=O)C2=C[C@@H]3[C@@H](C=C[C@@H]4C[C@@H](O[C@@H]5O[C@@H](C)[C@H](OC)[C@@H](OC)[C@H]5OC)C[C@@H]34)[C@@H]2CC(=O)O1 [Compound 23, 21-desethyl-21-n-propyl spinosyn A] | 100 | 100 | 
3 | CO[C@@H]1[C@@H](OC)[C@H](C)O[C@@H](O[C@H]2C[C@H]3[C@@H]4C=C5C(=O)[C@H](C)[C@@H](O[C@H]6CC[C@H](N(C)C)[C@@H](C)O6)CCC[C@H](C(C)C)OC(=O)C[C@H]5[C@@H]4C=C[C@@H]3C2)[C@@H]1OC [Compound 9, 21-desethyl-21-isopropyl spinosyn A] | 100 | 100 | active
4 | CCC[C@H]1CCC[C@H](O[C@H]2CC[C@H](N(C)C)[C@@H](C)O2)[C@@H](C)C(=O)C2=C[C@@H]3[C@@H](C=C[C@@H]4C[C@@H](O[C@@H]5O[C@@H](C)[C@H](OC)[C@@H](OC)[C@H]5OC)C[C@@H]34)[C@@H]2CC(=O)O1 [21-desethyl-21-n-propyl spinosyn A] |  |  | active
5 | CO[C@@H]1[C@@H](OC)[C@H](C)O[C@@H](O[C@H]2C[C@H]3[C@@H]4C=C5C(=O)[C@H](C)[C@@H](O[C@H]6CC[C@H](N(C)C)[C@@H](C)O6)CCC[C@@H](C6CC6)OC(=O)C[C@H]5[C@@H]4C=C[C@@H]3C2)[C@@H]1OC [Compound 1, 21-desethyl-21-cyclopropyl spinosyn A] | 33 | 100 | 
6 | CO[C@@H]1[C@@H](OC)[C@H](C)O[C@@H](O[C@H]2C[C@H]3[C@@H]4C=C5C(=O)[C@H](C)[C@@H](O[C@H]6CC[C@H](N(C)C)[C@@H](C)O6)CCC[C@@H](C6CCC6)OC(=O)C[C@H]5[C@@H]4C=C[C@@H]3C2)[C@@H]1OC [Compound 3, 21-desethyl-21-cyclobutyl spinosyn A] | 83 | 83 | 
7 | CO[C@@H]1[C@@H](OC)[C@H](C)O[C@@H](O[C@H]2C[C@H]3[C@@H]4C=C5C(=O)[C@H](C)[C@@H](O[C@H]6CC[C@H](N(C)C)[C@@H](C)O6)CCC[C@H](C6CCC6)OC(=O)C[C@H]5[C@@H]4C=C(C)[C@@H]3C2)[C@@H]1OC [Compound 4, 21-desethyl-21-cyclobutyl spinosyn D] | 83 | 100 | 
